The NIST ThermoML archive (doi:10.1021/je700126z)
Numbers after ± are expanded uncertainties.

How the values were obtained:
[1] = 298.15 K; 101.33 kPa; Liquid; Vibrating tube method
[2] = refractive index (Na D-line) (dimensionless); details: 298.15 K; 101.33 kPa; Liquid; Standard Abbe refractometry

mass density [1] [kg/m3]	refractive index [2]	Structure (SMILES)
1104.42 ± 6.6	1.43329 ± 0.0012	CCCCCCCC[n+]1ccn(C)c1.F[B-](F)(F)F [1-methyl-3-octylimidazolium tetrafluoroborate]
773.76 ± 0.24	1.42403 ± 0.0007	C1CCCCC1 [cyclohexane]
655.06 ± 0.19	1.37287 ± 0.00068	CCCCCC [hexane]
1058.5 ± 0.12	1.52581 ± 0.00068	c1ccsc1 [thiophene]
